As usually defined, the IC50 is the concentration that inhibits the measured activity by half. The low end stands for inhibition by little substance, the high end for a need for much substance. What is called Ki is a dissociation constant, usually derived from enzyme kinetics or from competition with a known ligand. High values mean lower affinity, low ones higher affinity.

Entries after “also recorded” stand apart in the source; their conditions may differ.

In one series the target is T1, hPTP1B1–285 (Homo sapiens, UniProt P18031).
T1 construct: hPTP1B1–285 (the short form with an N‐terminal catalytic domain)
T1 sequence (P18031 1-285): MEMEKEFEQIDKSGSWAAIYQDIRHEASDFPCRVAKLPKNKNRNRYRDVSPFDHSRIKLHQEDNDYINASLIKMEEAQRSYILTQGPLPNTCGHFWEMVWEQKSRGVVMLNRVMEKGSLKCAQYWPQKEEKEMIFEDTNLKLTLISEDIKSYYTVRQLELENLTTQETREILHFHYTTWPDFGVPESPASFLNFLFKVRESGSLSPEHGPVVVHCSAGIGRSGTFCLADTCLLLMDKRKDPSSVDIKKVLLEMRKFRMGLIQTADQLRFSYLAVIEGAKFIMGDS
Kind of series: PTP1B activity assay, short form hPTP1B1–285 (p‐NPP). In kind it is biochemical. The following applies: ± S.D; p‐NPP substrate, 15 min at 37 °C. The method, then: (§1) The inhibitory activity of PTP1B was assessed using two enzyme variants: hPTP1B1–285 (the short form with an N‐terminal catalytic domain) and hPTP1B1–400 (the long form with an intrinsically disordered C‐terminal regulatory domain). […] According to Coronel‐Tovar et al., the disordered region of the C‐terminal domain plays a crucial role in modulating PTP1B enzymatic activity.^[ [30] ^] […] Different concentrations of the compounds were evaluated to determine their IC50 values (Table 1 ).
To do so, these terpenoids were tested against hPTP1B1–285.
(§2) Recombinant human protein tyrosine phosphatase 1B, consisting of 400 and 285 amino acid residues, was used.^[ [35] ^] […] Aliquots of 0–10 µL of the test compounds (triplicate) were taken and incubated for 15 min at 37 °C with 85 µL of Tris buffer solution (50 mM, pH 6.8) containing PTP1B enzyme and 5 µL of p‐nitrophenyl phosphate substrate (p‐NPP, 10 mM). Absorbance was then measured at a wavelength of 405 nm. The inhibitory activity was determined according to Equation (1). (1) % PTP1B=(A405b/A405c)×100 where % PTP1B: Is the percentage of inhibition. A 405c: Is the corrected absorbance of the blank (A 405initial–A 405final). A 405b: Is the corrected absorbance of the compounds (A 405control–A 405compound).

Series [1] addresses T2, hPTP1B1–400 (Homo sapiens, UniProt P18031).
T2 sequence (P18031 1-400): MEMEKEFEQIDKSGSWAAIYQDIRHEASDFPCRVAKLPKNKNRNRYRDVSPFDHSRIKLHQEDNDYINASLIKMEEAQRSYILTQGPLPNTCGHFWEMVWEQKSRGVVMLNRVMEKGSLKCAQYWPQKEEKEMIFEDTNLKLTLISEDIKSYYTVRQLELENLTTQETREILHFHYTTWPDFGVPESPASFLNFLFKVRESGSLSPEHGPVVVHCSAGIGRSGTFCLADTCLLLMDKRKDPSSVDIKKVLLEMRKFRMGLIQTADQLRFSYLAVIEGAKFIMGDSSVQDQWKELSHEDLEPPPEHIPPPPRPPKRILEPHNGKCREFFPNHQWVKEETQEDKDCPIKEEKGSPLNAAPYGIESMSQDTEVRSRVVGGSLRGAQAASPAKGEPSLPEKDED
Kind of series: Kinetic studies of PTP1B (hPTP1B1–400).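 Also: enzyme kinetics run across a range of substrate and inhibitor levels, control lacking inhibitor, triplicate runs, parameters derived by fitting Michaelis–Menten style equations.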
Description: Kinetic analyses were performed at various substrate and inhibitor concentrations.
The negative control was prepared with the enzyme and substrate in the absence of the inhibitor. Experiments were conducted in triplicate.^[ [30] ^] […] The kinetic parameters of enzyme inhibition, K m and V max, were determined by fitting the data to the Michaelis‐Menten model, Equation (3) (OriginPro 2018 (64‐bit) SR1). (3) y=VmaxX/Km+X´ where V max: is the maximum velocity, X: is the inhibitor concentration, K m: Michaelis constant.
(4) y=Vmax(X)/(Km/1+I/Ki)+X where V max: maximum velocity, X: substrate concentration, I: inhibitor concentration, K m: Michaelis constant, K i : inhibition constant.

Series [2] deals with insulin‐resistant HepG2 cells. The series can be described thus: Insulin‐resistant HepG2 model, western blotting of PTP1B and pAKT. The series is classed as cell-based. The following applies: 24 h, western blot. The method, then: (§3) Subsequently, we evaluated the same compounds in a HepG2 insulin‐resistant model.
Bar graphs represent the mean ± SEM of normalized values. The control levels were set at 1. T‐test significance *p < 0.05, when compared with control (DMSO). Statistical analyses were carried out using GraphPad Prism 8.0.
For the resistant insulin model using HepG2 cells, the following reagents were acquired from Sigma–Aldrich (Toluca, MEX, Mexico, and St. Louis, MO, USA): Insulin (I2643), Dulbecco's modified eagle's medium (DMEM) low glucose media (D5523), Trypsin‐EDTA solution (T4174), antibiotic‐antimycotic solution(A5955), dimethyl sulfoxide (DMSO‐D8418), sodium deoxycholate (D6750), triethylammonium bicarbonate buffer 1 M (TEAB‐T7408), glutaraldehyde 25% (G6275), acetic acid (695092), and crystal violet (C0775). The bicinchoninic acid protein quantitation kit (23225) and the Halt Cocktail with protease and phosphatase inhibitors (1861281) were acquired from ThermoFisherScientific. Fetal bovine serum (26140–079) was from Gibco. The chemiluminescent solution (170–5061) was acquired from Biorad. Rabbit anti‐PTP1B (5311S) and mouse anti‐β actin (3700S) primary antibodies were obtained from Cell Signaling, and secondary antibodies coupled with horseradish peroxidase were from Jackson laboratories (rabbit‐111−035, mouse‐115–035).
Treated cells with compounds were washed twice with 1 mL of PBS, and protein was extracted using 500 µL of a buffer solution containing 10% sodium deoxycholate in 10% TEAB, supplemented with a protease and phosphatase inhibitor cocktail. The extracts were heated to 80 °C for 5 min and disaggregated through passages with an insulin syringe. The cell extracts were centrifuged at 15,000 rpm for 15 min at 4 °C, and the supernatant was collected. Protein quantification was performed using the bicinchoninic acid assay method, and aliquots were prepared for western blotting. SDS/PAGE was conducted, and proteins were transferred onto a nitrocellulose membrane. The membrane was then blocked with 10% skimmed milk in TBST for 1 h and incubated overnight with primary antibodies (1:400 dilution). Secondary antibodies coupled to horseradish peroxidase were diluted 1:2000, and membranes were incubated for 1 h. The blots were documented using the ChemiDoc MP (Bio‐Rad), and densitometric analysis was performed using ImageJ (U.S. National Institutes of Health). Statistical analyses were carried out using GraphPad Prism 8.0.
For orientation: A western blot detects proteins with antibodies after separation by electrophoresis.

The next series relates to HepG2 cells. The series can be described thus: Cell viability with crystal violet. As to conditions: 1 and 25 µM, 24 h. In kind it is cell-based. On the procedure:
as §3
A 96‐well plate was seeded with 3,000 cells per well and incubated for 24 h. Afterward, the cells were treated with test compounds at various concentrations for 24 h. After incubation, the media was removed, and 100 µL of 1% glutaraldehyde was added for 15 min. Afterward, the liquid was removed, and 50 µL of 0.5% crystal violet (dissolved in 25% methanol) was added for 30 min. The crystal violet staining solution was removed, and the plate was thoroughly washed with tap water. The precipitate was dissolved in a 10% acetic acid solution and mixed for 15 min. The absorbance was then measured at 590 nm using a plate reader (xMark Microplate Spectrophotometer—Bio‐Rad).
Figure S59. Cell viability assessment by crystal violet staining. HepG2 cell viability was evaluated
after treatment with the respective compounds at concentrations of 1 and 25 µM for 24 hours. Bar
graphs represent mean ± SEM.

Series [3] has as its target T2, hPTP1B1–400. Kind of series: PTP1B activity assay, long form hPTP1B1–400 (p‐NPP). In kind it is biochemical. Also noted: hPTP1B1–400 (the long form with an intrinsically disordered C‐terminal regulatory domain). As to conditions: ± S.D; p‐NPP substrate, 15 min at 37 °C, triplicate. On the procedure: as §1, §2
The mark [4] stands for this setting: ± S.D, hPTP1B1–400 with inhibitor.

In the case of `CC1(C(=O)O)CCC2(C)CCC3(C)C(=CC(=O)C4C5(C)Cc6c([nH]c7ccc(C(F)(F)F)cc67)C(C)(C)C5CCC43C)C2C1` (centres unmarked) [Compound 3c], it took 14900 ± 950 nM to reach half-maximal inhibition on hPTP1B1–285 (IC50). Also, affinity at hPTP1B1–400 [1] (K i, ± S.D, hPTP1B1–400, p‐NPP 0.1 to 0.5 mM) was put at a Ki of 71 ± 8 nM. Further, the Inhibition type entry on hPTP1B1–400 [1] (hPTP1B1–400) was “uncompetitive inhibition”. On hPTP1B1–400 [1] (setting [4]), the K m was found to be 520 ± 70 µM and the V max came to 0.62 ± 0.05 mM/min. Further, the “AKT phosphorylation (pAKT) levels” value in series [2] is given as “slight increase; also recorded: slightly increased pAKT levels”. Also, in the series on HepG2 cells, the HepG2 cell viability result is “No significant differences; also recorded: did not compromise HepG2 cell viability”. The same molecule gave an IC50 on hPTP1B1–400 [3] of 2060 ± 80 nM.

(Values after PMC12640663 (Chemmedchem, 2025).)
